Experimental data as given in ChEMBL document CHEMBL4257450, “The synthesis, biological evaluation and structure-activity relationship of 2-phenylaminomethylene-cyclohexane-1,3-diones as specific anti-tuberculosis agents” (Medchemcomm, 2017).
In brackets after ≈: the same amount, converted by molar mass.

Key:
[1] = system: Mycobacterium tuberculosis; assay: Antimycobacterial activity against Mycobacterium tuberculosis H37Rv after 14 days by broth dilution method; assay type: functional; conditions: 336 h
[2] = Growth inhibition of HEK293 cells at 50 uM by MTT assay relative to control; assay type: cell-based; conditions: human, read-out: GI
[3] = Growth inhibition of human MCF7 cells at 1 to 40 uM by MTT assay relative to control; assay type: cell-based; conditions: read-out: GI
[4] = Growth inhibition of human HCT116 cells at 1 to 40 uM by MTT assay relative to control; assay type: cell-based, HCT-116; conditions: read-out: GI
[5] = Growth inhibition of human PC3 cells at 50 uM by MTT assay relative to control; assay type: cell-based, PC-3; conditions: read-out: GI
[6] = Growth inhibition of human MCF7 cells at 50 uM by MTT assay relative to control; assay type: cell-based; conditions: read-out: GI
[7] = Growth inhibition of human PC3 cells at 1 to 40 uM by MTT assay relative to control; assay type: cell-based, PC-3; conditions: read-out: GI
[8] = Growth inhibition of HEK293 cells at 1 to 40 uM by MTT assay relative to control; assay type: cell-based; conditions: human, read-out: GI
[9] = Selectivity ratio of MIC for Mycobacterium smegmatis to MIC for Mycobacterium tuberculosis; assay type: functional
[10] = system: Mycobacterium tuberculosis; assay: Antimycobacterial activity against Mycobacterium tuberculosis; assay type: functional
[11] = system: Mycolicibacterium smegmatis; assay: Antimycobacterial activity against Mycobacterium smegmatis; assay type: functional
Bacillus subtilis = assay: Antibacterial activity against Bacillus subtilis ATCC 11774 after 24 hrs; assay type: functional; conditions: ATCC 11774, 24 h
[12] = system: Staphylococcus epidermidis; assay: Antibacterial activity against Staphylococcus epidermidis ATCC 12228 after 24 hrs; assay type: functional; conditions: ATCC 12228, 24 h
[13] = system: Mycolicibacterium smegmatis; assay: Antimycobacterial activity against Mycobacterium smegmatis ATCC 607 after 24 hrs; assay type: functional; conditions: ATCC 607, 24 h
HEK293 = assay: Growth inhibition of HEK293 cells up to 80 uM by MTT assay relative to control; assay type: cell-based; conditions: human
Pseudomonas aeruginosa = assay: Antibacterial activity against Pseudomonas aeruginosa ATCC 10145 after 24 hrs; assay type: functional; conditions: ATCC 10145, 24 h
Escherichia coli = assay: Antibacterial activity against Escherichia coli 10536 after 24 hrs; assay type: functional; conditions: Escherichia coli, 10536, 24 h
Klebsiella pneumoniae = assay: Antibacterial activity against Klebsiella pneumoniae ATCC BAA-2146 after 24 hrs; assay type: functional; conditions: ATCC BAA-2146, 24 h
Micrococcus luteus = assay: Antibacterial activity against Micrococcus luteus ATCC 10240 after 24 hrs; assay type: functional; conditions: ATCC 10240, 24 h
[14] = Growth inhibition of human HCT116 cells at 50 uM by MTT assay relative to control; assay type: cell-based, HCT-116; conditions: read-out: GI
Enterococcus faecalis = assay: Antibacterial activity against Enterococcus faecalis ATCC 51299 after 24 hrs; assay type: functional; conditions: ATCC 51299, 24 h
Staphylococcus aureus = assay: Antibacterial activity against Staphylococcus aureus ATCC 25923 after 24 hrs; assay type: functional; conditions: ATCC 25923, 24 h

Cc1ccc(NC=C2C(=O)CC(C)(C)CC2=O)cc1C
MIC [1]: > 80 µg/mL

O=C1CC(c2ccccc2)CC(=O)C1=CNc1ccccc1O (stereo not drawn)
inhibition at 50 µM [2]: 52.8% | inhibition at up to 40 µM [3]: < 20% | MIC [1]: 5 to 10 µg/mL (≈ 16.3 to 32.5 µM) | inhibition at up to 40 µM [4]: < 20% | inhibition at 50 µM [5]: 20.4% | inhibition at 50 µM [6]: 16.5% | inhibition at up to 40 µM [7]: < 20% | inhibition at up to 40 µM [8]: < 20%

CCCN(C=C1C(=O)CC(C)(C)CC1=O)CCC
MIC [1]: > 80 µg/mL

CC1(C)CC(=O)C(=CNc2cccc([N+](=O)[O-])c2)C(=O)C1
MIC [1]: > 80 µg/mL

CC1(C)CC(=O)C(=CNc2ccc([N+](=O)[O-])cc2[N+](=O)[O-])C(=O)C1
MIC [1]: > 80 µg/mL

CC1(C)CC(=O)C(=CNc2ccc(F)cc2F)C(=O)C1
MIC [1]: > 80 µg/mL

O=C1CCCC(=O)C1=CSc1ccccc1O
MIC [1]: 40 to 80 µg/mL (≈ 161 to 322 µM)

CC1(C)CC(=O)C(=CNc2ccc([N+](=O)[O-])cc2F)C(=O)C1
MIC [1]: 80 µg/mL (≈ 261 µM)

CC1(C)CC(=O)C(=CNc2ccccc2C(F)(F)F)C(=O)C1
MIC [1]: > 80 µg/mL

NNC(=O)c1ccncc1 [ISONIAZID]
MIC [1]: 0.313 µg/mL (≈ 2.28 µM) | Selectivity ratio [9]: 500 to 1000 | MIC [10]: 0.02 µg/mL (≈ 0.146 µM) | MIC [11]: 25 µg/mL (≈ 182 µM)

CC1(C)CC(=O)C(=CSc2ccccc2O)C(=O)C1
MIC [1]: 40 to 80 µg/mL (≈ 145 to 289 µM)

CC[C@@H](CO)NCCN[C@@H](CC)CO [ETHAMBUTOL]
MIC [1]: 1.25 µg/mL (≈ 6.12 µM)

CC1(C)CC(=O)C(=CNc2ccccc2O)C(=O)C1
inhibition at 50 µM [2]: 9.03% | MIC (Bacillus subtilis): > 128 µg/mL | inhibition at up to 40 µM [3]: < 20% | MIC [12]: > 128 µg/mL | MIC [13]: > 80 µg/mL | growth inhibition (GI) (HEK293): < 20% | MIC (Pseudomonas aeruginosa): > 128 µg/mL | MIC [1]: 2.5 µg/mL (≈ 9.64 µM) | MIC (Escherichia coli): 32 to 64 µg/mL (≈ 123 to 247 µM) | MIC (Klebsiella pneumoniae): > 128 µg/mL | inhibition at up to 40 µM [4]: < 20% | inhibition at 50 µM [5]: 10.1% | inhibition at 50 µM [6]: 15.1% | MIC (Micrococcus luteus): 128 µg/mL (≈ 494 µM) | inhibition at up to 40 µM [7]: < 20% | inhibition at 50 µM [14]: 20.2% | MIC (Enterococcus faecalis): > 128 µg/mL | inhibition at up to 40 µM [8]: < 20% | MIC (Staphylococcus aureus): > 128 µg/mL

CC1(C)CC(=O)C(=CNc2ccccc2[N+](=O)[O-])C(=O)C1
MIC [1]: > 80 µg/mL

O=C1CCC(=O)C1=CNc1ccc([N+](=O)[O-])cc1F
MIC [1]: > 80 µg/mL

O=C1CCCC(=O)C1=CNc1ccccc1O
inhibition at 50 µM [2]: 28.3% | inhibition at up to 40 µM [3]: < 20% | MIC [1]: 5 to 10 µg/mL (≈ 21.6 to 43.2 µM) | inhibition at up to 40 µM [4]: < 20% | inhibition at 50 µM [5]: 29.5% | inhibition at 50 µM [6]: 14.5% | inhibition at up to 40 µM [7]: < 20% | inhibition at 50 µM [14]: 10.6% | inhibition at up to 40 µM [8]: < 20%

CCCCNC=C1C(=O)CC(C)(C)CC1=O
MIC [1]: > 80 µg/mL

CC1(C)CC(=O)C(=CNc2ccc(Br)cc2)C(=O)C1
MIC [1]: > 80 µg/mL

CC1(C)CC(=O)C(=CNc2ccc([N+](=O)[O-])cc2Cl)C(=O)C1
MIC [1]: > 80 µg/mL

O=C1CCCC(=O)C1=CNc1ccc([N+](=O)[O-])cc1F
MIC [1]: 80 µg/mL (≈ 288 µM)

CC1(C)CC(=O)C(=CNc2cccc3ccccc23)C(=O)C1
MIC [1]: > 80 µg/mL

CC1(C)CC(=O)C(=CNc2cccc(C(F)(F)F)c2)C(=O)C1
MIC [1]: > 80 µg/mL

CO[C@H]1/C=C/O[C@@]2(C)Oc3c(C)c(O)c4c(O)c(c(/C=N/N5CCN(C)CC5)c(O)c4c3C2=O)NC(=O)/C(C)=C\C=C\[C@H](C)[C@H](O)[C@@H](C)[C@@H](O)[C@@H](C)[C@H](OC(C)=O)[C@@H]1C [RIFAMPIN]
MIC [1]: 0.078 µg/mL (≈ 0.0948 µM) | Selectivity ratio [9]: 500 to 1000 | MIC [10]: 0.2 µg/mL (≈ 0.243 µM) | MIC [11]: 100 µg/mL (≈ 122 µM)

O=C1CC(c2ccco2)CC(=O)C1=CNc1ccccc1O (stereo not drawn)
inhibition at 50 µM [2]: 46.4% | inhibition at up to 40 µM [3]: < 20% | MIC [1]: 10 to 20 µg/mL (≈ 33.6 to 67.3 µM) | inhibition at up to 40 µM [4]: < 20% | inhibition at 50 µM [5]: 26.1% | inhibition at 50 µM [6]: 2.92% | inhibition at up to 40 µM [7]: < 20% | inhibition at 50 µM [14]: 42.8% | inhibition at up to 40 µM [8]: < 20%

C[C@H]1COc2c(N3CCN(C)CC3)c(F)cc3c(=O)c(C(=O)O)cn1c23.C[C@H]1COc2c(N3CCN(C)CC3)c(F)cc3c(=O)c(C(=O)O)cn1c23.O [LEVOFLOXACIN]
MIC (Bacillus subtilis): 0.39 µg/mL | MIC [12]: 0.039 to 0.078 µg/mL | MIC [13]: 0.156 µg/mL | MIC (Pseudomonas aeruginosa): 0.312 to 0.625 µg/mL | MIC [1]: 2.5 µg/mL | MIC (Escherichia coli): 0.078 µg/mL | MIC (Klebsiella pneumoniae): 0.625 to 1.25 µg/mL | MIC (Micrococcus luteus): 0.078 µg/mL | MIC (Enterococcus faecalis): 0.156 µg/mL | MIC (Staphylococcus aureus): 0.078 to 0.156 µg/mL

CC1(C)CC(=O)C(=CNc2ccccc2Br)C(=O)C1
MIC [1]: > 80 µg/mL

CC1(C)CC(=O)C(=CNc2ccc(Cl)cc2)C(=O)C1
MIC [1]: > 80 µg/mL

CC1(C)CC(=O)C(=CNCc2ccc(F)cc2)C(=O)C1
MIC [1]: > 80 µg/mL

O=C1CCCC(=O)C1=CNc1ccc([N+](=O)[O-])cc1Cl
MIC [1]: 40 to 80 µg/mL (≈ 136 to 271 µM)

Cc1ccc(NC=C2C(=O)CC(C)(C)CC2=O)c(C)c1C
MIC [1]: > 80 µg/mL

CC1(C)CC(=O)C(=CNc2cc(Cl)c(Cl)cc2Cl)C(=O)C1
MIC [1]: > 80 µg/mL

CC1(C)CC(=O)C(=CNc2cccc(Br)c2)C(=O)C1
MIC [1]: > 80 µg/mL

CCCNC=C1C(=O)CC(C)(C)CC1=O
MIC [1]: > 80 µg/mL

CC1(C)CC(=O)C(=CNc2ccc([N+](=O)[O-])cc2)C(=O)C1
MIC [1]: > 80 µg/mL

CC1CC(=O)C(=CNc2ccccc2O)C(=O)C1 (stereo not drawn)
inhibition at 50 µM [2]: 6.08% | inhibition at up to 40 µM [3]: < 20% | MIC [1]: 20 µg/mL (≈ 81.5 µM) | inhibition at up to 40 µM [4]: < 20% | inhibition at 50 µM [5]: 8.2% | inhibition at 50 µM [6]: 16.6% | inhibition at up to 40 µM [7]: < 20% | inhibition at 50 µM [14]: 35.7% | inhibition at up to 40 µM [8]: < 20%

CC1(C)CC(=O)C(=CNc2ccccc2)C(=O)C1
MIC [1]: > 80 µg/mL

O=C1CC(c2ccc(Cl)cc2)CC(=O)C1=CNc1ccccc1O (stereo not drawn)
inhibition at 50 µM [2]: 44% | inhibition at up to 40 µM [3]: < 20% | MIC [1]: 20 µg/mL (≈ 58.5 µM) | inhibition at up to 40 µM [4]: < 20% | inhibition at 50 µM [5]: 18.6% | inhibition at 50 µM [6]: 23.4% | inhibition at up to 40 µM [7]: < 20% | inhibition at 50 µM [14]: 28.6% | inhibition at up to 40 µM [8]: < 20%

CN[C@@H]1[C@H](O[C@H]2[C@H](O[C@H]3[C@H](O)[C@@H](O)[C@H](N=C(N)N)[C@@H](O)[C@@H]3N=C(N)N)O[C@@H](C)[C@]2(O)C=O)O[C@@H](CO)[C@H](O)[C@H]1O [STREPTOMYCIN]
MIC [1]: 1.56 µg/mL (≈ 2.68 µM)

Cc1ccc(NC=C2C(=O)CC(C)(C)CC2=O)c(C)c1
MIC [1]: > 80 µg/mL

O=C1CCC(=O)C1=CNc1ccccc1O
MIC [1]: > 80 µg/mL

CC1(C)CCC(=O)C(=CNc2ccccc2O)C1=O (mixture of isomers)
inhibition at 50 µM [2]: 64.1% | inhibition at up to 40 µM [3]: < 20% | MIC [1]: 10 to 20 µg/mL | inhibition at up to 40 µM [4]: < 20% | inhibition at 50 µM [5]: 41.2% | inhibition at up to 40 µM [7]: < 20% | inhibition at 50 µM [14]: 60.7% | inhibition at up to 40 µM [8]: < 20%

O=C1CCC(=O)C1=CNc1ccc([N+](=O)[O-])cc1Cl
MIC [1]: > 80 µg/mL

CCCCCNC=C1C(=O)CC(C)(C)CC1=O
MIC [1]: > 80 µg/mL

CNC=C1C(=O)CC(C)(C)CC1=O
MIC [1]: > 80 µg/mL
